The assay addresses T1, sigma 1 (h) (Homo sapiens, UniProt Q99720).
T1 construct: incubating Jurkat cell membranes (10-20 mg protein per tube) with [^3H](+) pentazocine; endogenous in cells; host or cells: Jurkat cell membranes
Put plainly: σ1 binding assay ([3H](+)pentazocine displacement, Jurkat cell membranes). The conditions noted are these: [3H](+)pentazocine 15 nM, 37° C., 2 hours; for inhibition at 0.01 µM: compound at 10 nM, read-out: Sigma-1 receptor % inhibition 10 nM; for inhibition at 0.1 µM: compound at 100 nM, read-out: Sigma-1 receptor % inhibition 100 nM. The protocol:
The σ1 binding assays were performed according to Ganapathy et al (Ganapathy, M. E. et al. (1999), J. Pharmacol. Exp. Ther., 28:251-260). The σ1 binding assay was carried out by incubating Jurkat cell membranes (10-20 mg protein per tube) with [^3H](+) pentazocine a selective S1R ligand (15 nM) and a range of concentration of tested compounds, at 37° C. for 2 hours in 5 mM tris/HCl buffer (pH=7.4). The inhibition of [3H]-(+)-pentazocine binding assay is mainly used to determine the inhibition constant (Ki) of potential SIR ligands. These assays are performed with a single concentration of [^3H]-(+)-pentazocine at a concentration near its KD and increasing concentrations of non-radioactive ligands.

The text below walks through data of patent US12612371B2, “Sigma-1 receptor ligands and therapeutic uses thereof” (UNIVERSITE DE STRASBOURG, priority 2019, dated 2026).

T1 sequence (Q99720 whole entry): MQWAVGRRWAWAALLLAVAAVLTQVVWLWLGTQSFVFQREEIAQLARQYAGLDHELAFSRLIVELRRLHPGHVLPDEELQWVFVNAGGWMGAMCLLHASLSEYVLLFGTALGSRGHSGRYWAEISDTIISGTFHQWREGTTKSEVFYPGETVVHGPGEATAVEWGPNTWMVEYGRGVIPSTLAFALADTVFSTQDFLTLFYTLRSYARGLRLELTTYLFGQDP

For `CN(CCCn1nccc(-c2ccccc2)c1=O)Cc1ccccc1` [9a, 2-(3-(benzyl(methyl)amino)propyl)-4-phenylpyridazin-3(2H)-one], the inhibition at 0.01 µM is 61.5%.

On to `O=c1c(-c2ccccc2)ccnn1CCCN1CCCCCC1` [9b, 2-(3-(azepan-1-yl)propyl)-4-phenylpyridazin-3(2H)-one], for which the inhibition at 0.01 µM was 47.4%.

On to `O=c1c(-c2ccccc2)ccnn1CCCN1CCOCC1` [9c, 2-[3-(morpholin-4-yl)propyl]-4-phenyl-2,3-dihydropyridazin-3-one], for which the inhibition at 0.01 µM worked out at 7.6%.

`CN(CCCCn1nccc(-c2ccccc2)c1=O)Cc1ccccc1` [10a, 2-(4-(benzyl(methyl)amino)butyl)-4-phenylpyridazin-3(2H)-one]: the inhibition at 0.01 µM stood at 87.5%.

Take `O=c1c(-c2ccccc2)ccnn1CCCCN1CCOCC1` [10b, 2-(4-morpholinobutyl)-4-phenylpyridazin-3(2H)-one]: the inhibition at 0.01 µM was found to be 14.5%.

`O=c1c(-c2ccccc2)ccnn1CCCCN1CCCOCC1` [10c, 2-(4-(1,4-oxazepan-4-yl)butyl)-4-phenylpyridazin-3(2H)-one]: the inhibition at 0.01 µM stood at 40.3% and the inhibition at 0.1 µM came to 80.3%.

For the molecule `O=c1c(-c2ccccc2)ccnn1CCCCN1CCCCC1` [10d, 4-phenyl-2-(4-(piperidin-1-yl)butyl)pyridazin-3(2H)-one], the inhibition at 0.01 µM came to 28.3%.

`O=c1c(-c2ccccc2)ccnn1CCCCN1CCCCCC1` [10e, 2-(4-(azepan-1-yl)butyl)-4-phenylpyridazin-3(2H)-one]: the inhibition at 0.01 µM came to 30.2%.

Take `O=c1c(-c2ccccc2)ccnn1CCCCN1CCCCCCC1` [10f, 2-(4-(azocan-1-yl)butyl)-4-phenylpyridazin-3(2H)-one]: the inhibition at 0.01 µM was 70%.

Take `O=c1c(-c2ccccc2)ccnn1CCCCN1CCc2ccccc2C1` [10g, 2-(4-(3,4-dihydroisoquinolin-2(1H)-yl)butyl)-4-phenylpyridazin-3(2H)-one]: the inhibition at 0.01 µM was found to be 73.5%.

Regarding `O=c1c(-c2ccccc2)ccnn1CCCCN1CCc2ccccc2CC1` [10h, 4-phenyl-2-(4-(1,2,4,5-tetrahydro-3H-benzo[d]azepin-3-yl)butyl)pyridazin-3(2H)-one], the inhibition at 0.01 µM stood at 70.8%.

Consider `O=c1c(-c2ccccc2)ccnn1CCCCNC12CC3CC(CC(C3)C1)C2` [10i, 2-(4-(adamantan-1-ylamino)butyl)-4-phenylpyridazin-3(2H)-one], for which the inhibition at 0.01 µM came to 37.1%.

As for `CN(CCCCn1nccc(-c2ccccc2)c1=O)C12CC3CC(CC(C3)C1)C2` [10j, 2-(4-(adamantan-1-yl(methyl)amino)butyl)-4-phenylpyridazin-3(2H)-one], the inhibition at 0.01 µM is 4.9%.

Consider `CC1(C)CC2CC(C)(CN2CCCCn2nccc(-c3ccccc3)c2=O)C1` (stereo not shown) [10k, 4-phenyl-2-(4-(1,3,3-trimethyl-6-azabicyclo[3.2.1]octan-6-yl)butyl)pyridazin-3(2H)-one], for which the inhibition at 0.01 µM was 3.7%.

In the case of `O=c1c(-c2ccccc2)ccnn1CCCCN(Cc1ccccc1)CC1CCCO1` (stereo not shown) [10m, 2-(4-(benzyl((tetrahydrofuran-2-yl)methyl)amino)butyl)-4-phenylpyridazin-3(2H)-one], the inhibition at 0.01 µM worked out at 28.8%.

As to `COCC(c1ccccc1)N(C)CCCCn1nccc(-c2ccccc2)c1=O` (stereo not shown) [10o, 2-(4-((2-methoxy-1-phenylethyl)(methyl)amino)butyl)-4-phenylpyridazin-3(2H)-one], the inhibition at 0.01 µM was determined as 25.6% and the inhibition at 0.1 µM amounted to 68.3%.

`CN(CCO)CCCCn1nccc(-c2ccccc2)c1=O` [10p, 2-(4-((2-hydroxyethyl)(methyl)amino)butyl)-4-phenylpyridazin-3(2H)-one]: the inhibition at 0.1 µM stood at 9.7%.

As for `CN(CCCCn1nccc(-c2ccccc2)c1=O)CC1CCOCC1` [10q, 2-(4-(methyl((tetrahydro-2H-pyran-4-yl)methyl)amino)butyl)-4-phenylpyridazin-3(2H)-one], the inhibition at 0.01 µM was determined as 29.4% and the inhibition at 0.1 µM turned out to be 79.6%.

With `O=c1c(-c2ccccc2)ccnn1CCCCN1CCCC(c2ccccc2)C1` (stereo not shown) [10r, 4-phenyl-2-(4-(3-phenylpiperidin-1-yl)butyl)pyridazin-3(2H)-one], the inhibition at 0.01 µM amounted to 78.7% and the inhibition at 0.1 µM turned out to be 92.1%.

As for `O=c1c(-c2ccccc2)ccnn1CCCCN1CCC(c2ccccc2)CC1` [10s, 4-phenyl-2-(4-(4-phenylpiperidin-1-yl)butyl)pyridazin-3(2H)-one], the inhibition at 0.01 µM worked out at 64.6%.

Regarding `O=c1c(-c2ccccc2)ccnn1CCCCN1CCCC(CO)C1` (stereo not shown) [10t, 2-(4-(3-(hydroxymethyl)piperidin-1-yl)butyl)-4-phenylpyridazin-3(2H)-one], the inhibition at 0.01 µM was 9.7% and the inhibition at 0.1 µM turned out to be 38.2%.

As to `O=c1c(-c2ccccc2)ccnn1CCCCN1CCCCC1CCO` (stereo not shown) [10u, 2-(4-(2-(2-hydroxyethyl)piperidin-1-yl)butyl)-4-phenylpyridazin-3(2H)-one], the inhibition at 0.1 µM stood at 26.5%.

With `O=c1c(-c2ccccc2)ccnn1CCCCN1CCOC(c2ccccc2)C1` (stereo not shown) [10w, 4-phenyl-2-(4-(2-phenylmorpholino)butyl)pyridazin-3(2H)-one], the inhibition at 0.01 µM was 37.6% and the inhibition at 0.1 µM came out at 79.4%.

Consider `CC1CN(CCCCn2nccc(-c3ccccc3)c2=O)CC(C)O1` (stereo not shown) [10x, 2-(4-(2,6-dimethylmorpholino)butyl)-4-phenylpyridazin-3(2H)-one], for which the inhibition at 0.01 µM stood at 34.6% and the inhibition at 0.1 µM was 76.2%.

Take `O=c1c(-c2ccccc2)ccnn1CCCCN1CCN(Cc2ccccc2)CC1` [10z, 2-[4-(4-benzylpiperazin-1-yl)butyl]-4-phenyl-2,3-dihydropyridazin-3-one]: the inhibition at 0.01 µM was determined as 64.2%.

Regarding `O=c1c(-c2ccccc2)ccnn1CCCCN1CCC(Cc2ccccc2)CC1` [11a, 2-[4-(4-benzylpiperidin-1-yl)butyl]-4-phenyl-2,3-dihydropyridazin-3-one], the inhibition at 0.01 µM was determined as 83.4%.

As to `CCN(CCCCn1nccc(-c2ccccc2)c1=O)Cc1ccccc1` [11b, 2-{4-[benzyl(ethyl)amino]butyl}-4-phenyl-2,3-dihydropyridazin-3-one], the inhibition at 0.01 µM was determined as 73.9%.

Consider `O=c1c(-c2ccccc2)ccnn1CCCCN1CCN(c2ccccc2)CC1` [11d, 4-phenyl-2-[4-(4-phenylpiperazin-1-yl)butyl]-2,3-dihydropyridazin-3-one], for which the inhibition at 0.01 µM turned out to be 16.1%.

For `O=c1c(-c2ccccc2)ccnn1CCCCN1CCC[C@H]2CCCC[C@@H]21` [11e, 2-{4-[(4aR,8aS)-decahydroquinolin-1-yl]butyl}-4-phenyl-2,3-dihydropyridazin-3-one], the inhibition at 0.01 µM stood at 7.4%.

On to `O=c1c(-c2ccc(F)cc2)ccnn1CCCCN1CCOCC1` [11h, 4-(4-fluorophenyl)-2-(4-morpholinobutyl)pyridazin-3(2H)-one], for which the inhibition at 0.01 µM worked out at 12%.

With `O=c1c(-c2ccc(Cl)cc2)ccnn1CCCCN1CCOCC1` [11k, 4-(4-chlorophenyl)-2-[4-(morpholin-4-yl)butyl]-2,3-dihydropyridazin-3-one], the inhibition at 0.01 µM was found to be 1.9%.

Regarding `O=c1c(-c2cccc(Cl)c2)ccnn1CCCCN1CCOCC1` [11l, 4-(3-chlorophenyl)-2-[4-(morpholin-4-yl)butyl]-2,3-dihydropyridazin-3-one], the inhibition at 0.01 µM amounted to 69.1%.

Regarding `O=c1c(-c2ccccc2Cl)ccnn1CCCCN1CCOCC1` [11m, 4-(2-chlorophenyl)-2-[4-(morpholin-4-yl)butyl]-2,3-dihydropyridazin-3-one], the inhibition at 0.01 µM came out at 5.04%.

As for `O=c1c(-c2ccc(C(F)(F)F)cc2)ccnn1CCCCN1CCOCC1` [11n, 2-[4-(morpholin-4-yl)butyl]-4-[4-(trifluoromethyl)phenyl]-2,3-dihydropyridazin-3-one], the inhibition at 0.01 µM stood at 6.13%.

`O=c1c(-c2ccsc2)ccnn1CCCCN1CCOCC1` [11o, 2-[4-(morpholin-4-yl)butyl]-4-(thiophen-3-yl)-2,3-dihydropyridazin-3-one]: the inhibition at 0.01 µM worked out at 33.4%.

On to `O=c1c(-c2ccoc2)ccnn1CCCCN1CCOCC1` [11p, 4-(furan-3-yl)-2-[4-(morpholin-4-yl)butyl]-2,3-dihydropyridazin-3-one], for which the inhibition at 0.01 µM was 15.6%.

Consider `Cc1cc(-c2ccccc2)c(=O)n(CCCCN(C)Cc2ccccc2)n1` [11v, 2-{4-[benzyl(methyl)amino]butyl}-6-methyl-4-phenyl-2,3-dihydropyridazin-3-one], for which the inhibition at 0.1 µM is 86%.

Regarding `Cc1cc(-c2ccccc2)c(=O)n(CCCCN2CCCCCC2)n1` [11w, 2-[4-(azepan-1-yl)butyl]-6-methyl-4-phenyl-2,3-dihydropyridazin-3-one], the inhibition at 0.1 µM is 53.9%.

As to `O=c1c(CCc2ccccc2)ccnn1CCCCN1CCOCC1` [21a, 2-[4-(morpholin-4-yl)butyl]-4-(2-phenylethyl)-2,3-dihydropyridazin-3-one], the inhibition at 0.01 µM was determined as 1.1%.

Take `O=c1c(N2CCCCC2)ccnn1CCCCN1CCOCC1` [25a, 2-(4-morpholinobutyl)-4-(piperidin-1-yl)pyridazin-3(2H)-one]: the inhibition at 0.01 µM came to 15.8%.

As for `CN(Cc1ccccc1)CC(O)CCn1nccc(-c2ccccc2)c1=O` (stereo not shown) [33a, 2-(4-(benzyl(methyl)amino)-3-hydroxybutyl)-4-phenylpyridazin-3(2H)-one], the inhibition at 0.01 µM is 12.3%.

For the molecule `Cc1ncc(-c2ccccc2)c(=O)n1CCCCN1CCOCC1` [40a, 2-methyl-3-(4-morpholinobutyl)-5-phenylpyrimidin-4(3H)-one], the inhibition at 0.01 µM came out at 1.4%.
